PMC10410440, “Preclinical PK investigation of a novel IDO1/TDO dual inhibitor—SHR9146 in mouse plasma and tissues by LC-MS/MS” (Frontiers in Oncology, 2023)
“Also recorded” adds a separate entry of the source. Read-outs that look alike come from different tables or passages of the source.

Test: Tissue distribution of SHR9146 in mice after oral gavage of 40 mg/kg
Type: in vivo, ICR mice
Settings: for concentration at 6 h / concentration at 24 h / concentration at 1 h / concentration at 3 h: male, ICR, mouse, po, 40 mg/kg oral gavage
Protocol: ICR mice with body weight 16–26 g were supplied by Shanghai Lingchang Biotechnology Co., Ltd. (animal breeding license number SCXK (Shanghai) 2013-0018) and housed at Shanghai Institute of Materia Medica, Chinese Academy of Sciences [animal use license number SYXK (Shanghai) 2015-0027]. The mice used in this study were fasted overnight for 12 h but had free access to water. Food was supplied 4 h post-dose. All experiments in this study were conducted in accordance with the Guidelines for the Care and Use of Laboratory Animals of Shanghai Institute of Materia Medica, Chinese Academy of Sciences.
Another set of 30 mice were randomly assigned into five groups with equal numbers, males and females, for tissue distribution study with oral gavage at a single dose of 40 mg/kg at predetermined different time points: pre-dose and post dose at 1, 3, 6, and 24 h, respectively. The whole brain, heart, liver, spleen, lung, kidney, bladder, pancreas, testis, ovary, uterus, stomach, small intestine, adrenal gland, skin, skeletal muscle, thyroid gland, and abdominal fat tissues as well as the whole blood and plasma samples were harvested. Tissue samples were washed with 0.9% sodium chloride solution to remove the residual blood or contents, blotted on a filter paper, and stored at −70°C prior to the analysis.
Protein precipitation was selected for the pretreatment of both the plasma and the tissue homogenate prepared after thawing at room temperature, cut into pieces, and homogenized with a quintuple methanol–water mixture (1:1, v/v) for each tissue sample.
Briefly as follows, an aliquot of 25-μL plasma or tissue homogenate was spiked with 100 μL of internal standard solution (1 μg/mL for plasma, 0.2 μg/mL for tissue homogenate) and 300 μL of methanol added and vortex mixed for 60 s. The mixture was then centrifuged at 14,000 rpm at 4°C for 5.0 min, and the supernatant was diluted with methanol–water (4:1, v/v) in a ratio of 1:9 for the plasma or 1:1 for the tissue homogenate, and 5 μL of the resulting solution was injected for the LC-MS/MS analysis.
After oral administration of 40 mg/kg SHR9146, samples in different tissues at predetermined time points (pre-drug administration, post-drug administration at 1, 3, 6, and 24 h) were collected and prepared for the analysis. The drug concentrations of SHR9146 (μg/g or μg/mL) were determined for each mouse, and the mean and standard deviation were further obtained (Table S7).

[1] = kidney, 40 mg/kg, Mean (n=3), read-out: SHR9146 concentration in Kidney
[2] = liver, 40 mg/kg, Mean (n=3), read-out: SHR9146 concentration in Liver
[3] = liver, 40 mg/kg, individual mice, read-out: SHR9146 concentration in Liver
[4] = lung, 40 mg/kg, Mean (n=3), read-out: SHR9146 concentration in Lung
[5] = lung, 40 mg/kg, individual mice, read-out: SHR9146 concentration in Lung
[6] = pancreas, 40 mg/kg, Mean (n=3), read-out: SHR9146 concentration in Pancreas
[7] = pancreas, 40 mg/kg, individual mice, read-out: SHR9146 concentration in Pancreas
[8] = plasma, 40 mg/kg, Mean (n=3), read-out: SHR9146 concentration in Plasma
[9] = plasma, 40 mg/kg, individual mice, read-out: SHR9146 concentration in Plasma
[10] = skeletal muscle, 40 mg/kg, Mean (n=3), read-out: SHR9146 concentration in Skeletal muscle
[11] = skeletal muscle, 40 mg/kg, individual mice, read-out: SHR9146 concentration in Skeletal muscle
[12] = skin, 40 mg/kg, Mean (n=3), read-out: SHR9146 concentration in Skin
[13] = small intestine, 40 mg/kg, Mean (n=3), read-out: SHR9146 concentration in Small intestine
[14] = small intestine, 40 mg/kg, individual mice, read-out: SHR9146 concentration in Small intestine
[15] = spleen, 40 mg/kg, Mean (n=3), read-out: SHR9146 concentration in Spleen
[16] = spleen, 40 mg/kg, individual mice, read-out: SHR9146 concentration in Spleen
[17] = stomach, 40 mg/kg, Mean (n=3), read-out: SHR9146 concentration in Stomach
[18] = testis, 40 mg/kg, Mean (n=3), read-out: SHR9146 concentration in Testis
[19] = thyroid gland, 40 mg/kg, Mean (n=3), read-out: SHR9146 concentration in thyroid gland
[20] = thyroid gland, 40 mg/kg, individual mice, read-out: SHR9146 concentration in thyroid gland
[21] = whole blood, 40 mg/kg, Mean (n=3), read-out: SHR9146 concentration in Whole blood
[22] = whole blood, 40 mg/kg, individual mice, read-out: SHR9146 concentration in Whole blood

concentration at 6 h [1]: 210 ng/g | concentration at 24 h [1]: 18 ng/g | concentration at 24 h (kidney, 40 mg/kg, individual mice, read-out: SHR9146 concentration in Kidney): 55 ng/g | concentration at 1 h [2]: 20000 ng/g | concentration at 1 h [3]: 22000 ng/g | concentration at 3 h [2]: 9670 ng/g | concentration at 6 h [2]: 633 ng/g | concentration at 24 h [2]: 110 ng/g | concentration at 24 h [3]: 330 ng/g | concentration at 1 h [4]: 12500 ng/g | concentration at 1 h [5]: 13100 ng/g | concentration at 3 h [4]: 5160 ng/g | concentration at 6 h [4]: 645 ng/g | concentration at 6 h [5]: 725 ng/g | concentration at 24 h [4]: 11700 ng/g | concentration at 1 h [6]: 12600 ng/g | concentration at 1 h [7]: 13800 ng/g | concentration at 3 h [6]: 4870 ng/g | concentration at 6 h [6]: 67 ng/g | concentration at 6 h [7]: 74 ng/g | concentration at 1 h [8]: 9120 ng/mL | concentration at 1 h [9]: 10100 ng/mL | concentration at 3 h [8]: 3710 ng/mL | concentration at 6 h [8]: 49 ng/mL | concentration at 6 h [9]: 53 ng/mL | concentration at 1 h [10]: 5600 ng/g | concentration at 1 h [11]: 6100 ng/g | concentration at 3 h [10]: 2220 ng/g | concentration at 6 h [10]: 23 ng/g | concentration at 6 h [11]: 70 ng/g | concentration at 1 h [12]: 7210 ng/g | concentration at 3 h [12]: 3110 ng/g | concentration at 6 h [12]: 113 ng/g | concentration at 24 h [12]: 21 ng/g | concentration at 24 h (skin, 40 mg/kg, individual mice, read-out: SHR9146 concentration in Skin): 64 ng/g | concentration at 1 h [13]: 22700 ng/g | concentration at 1 h [14]: 19200 ng/g | concentration at 3 h [13]: 6910 ng/g | concentration at 6 h [13]: 90 ng/g | concentration at 6 h [14]: 117 ng/g | concentration at 1 h [15]: 4840 ng/g | concentration at 1 h [16]: 5540 ng/g | concentration at 3 h [15]: 1700 ng/g | concentration at 6 h [15]: 17 ng/g | concentration at 6 h [16]: 51 ng/g | concentration at 1 h [17]: 38000 ng/g | concentration at 1 h (stomach, 40 mg/kg, individual mice, read-out: SHR9146 concentration in Stomach): 39900 ng/g | concentration at 3 h [17]: 10200 ng/g | concentration at 6 h [17]: 1140 ng/g | concentration at 24 h [17]: 499 ng/g | concentration at 1 h [18]: 4000 ng/g | concentration at 1 h (testis, 40 mg/kg, individual mice, read-out: SHR9146 concentration in Testis): 4160 ng/g | concentration at 3 h [18]: 1660 ng/g | concentration at 6 h [18]: 100 ng/g | concentration at 1 h [19]: 7010 ng/g | concentration at 1 h [20]: 7250 ng/g | concentration at 3 h [19]: 2730 ng/g | concentration at 6 h [19]: 63 ng/g | concentration at 6 h [20]: 71 ng/g | concentration at 1 h [21]: 6060 ng/mL | concentration at 1 h [22]: 6820 ng/mL | concentration at 3 h [21]: 2440 ng/mL | concentration at 6 h [21]: 22 ng/mL | concentration at 6 h [22]: 67 ng/mL | tissue concentration at 24 h as share of the highest concentration (oral 40 mg/kg, mice, last time point 24 h): around 3.1%
SMILES: OCCn1cc(-c2ccc(N3CCC([C@H]4c5c(F)cccc5-c5cncn54)CC3)cc2)cn1 [SHR9146]
distribution into brain (oral 40 mg/kg, mice, 40 mg/kg): lowest; also recorded: rarely distributed in the brain | tissue distribution (oral 40 mg/kg, mice, 40 mg/kg): widely distributed in various tissues and mainly distributed in the stomach, adrenal gland, liver, and lung
